# Tests used:
# OMM1 cells = assay: Cell proliferation assay; format: cell-based, human
# Method: (§1) Human uveal melanoma cell lines and short-term cultures derived from different patients with metastatic malignant melanoma cells were grown in DMEM supplemented with 7% FBS at 37° C. in a humidified atmosphere containing 5% CO2. Lipofectamine™ RNAiMAX and opti-MEM medium were purchased from Invitrogen (San Diego, CA, USA). ABT-263 was obtained from Euromedex and qVD from Clinisciences.
# [1] = system: OMM2,5 metastatic melanoma cells; assay: Cell proliferation assay; format: cell-based, human
# Method: as §1
# primary melanoma cells = assay: Cell proliferation assay; format: cell-based, human; conditions: data not shown
# Method: as §1
# [2] = system: ER stress molecules in Mel270 cells; assay: Western blot of ER stress molecules; format: cell-based, human
# Method: Western blot of ER stress molecules in Mel270 cells treated with ABT-263 5 μM in the absence or presence of QVD-OPh 20 μM. Representative western blot are shown.
# (§2) Western blotting was performed as previously described 25,26. Briefly, cell lysates (30 μg) were separated using SDS-PAGE, transferred onto a PVDF membrane and subsequently exposed to the appropriate antibodies, anti-BCL2 (ms-123-PO) was from neomarker, anti-caspase 3 (#610323) was from BD, anti-BAX (#8429) was from sigma, anti-PARP (#9542), anti-BCL-XL (#2762), anti-caspase 9 (#9502) and anti-PUMA (#4976) were from Cell Signaling Technology Inc, anti-MCL1 (#sc-819), anti-NOXA (#56169), and anti-HSP90 (#sc-13119) were from Santa Cruz biotechnology. The proteins were visualized using the ECL system (Amersham).
# 92.1 cells = assay: Cell death / apoptosis; format: cell-based, human; conditions: data not shown
# Method: (§3) Cells were seeded at a density of 100 000 cells/well, in 6-well plate and treated with ABT-263 for indicated time. Cells were harvested using accutase enzyme, washed twice with ice-cold phosphate-buffered saline, resuspended in a buffer (Hepes 250 mM, NaCl 150 mM, KCl 5 mM, MgCl2 2 mM, CaCl2) 2 mM) with DAPI (1 μg/ml) and Annexin V-Alexa Fluor 647 conjugate (1/100) and incubated for 15 minutes at room temperature (25° C.) in the dark. Samples were immediately analyzed by a flow cytometer (MACS QUANT) using a laser at 405 nm excitation with a bandpass filter at 425 nm and 475 nm for DAPI detection and a laser at 635 nm excitation with a bandpass filter at 650 nm and 665 nm for Alexa Fluor 647 dye. Annexin and DAPI mono- or double positive cells were counted as dead cells.
# Mel270 cells = assay: Cell death / alive cells by Annexin V/DAPI FACS; format: cell-based, human; conditions: GSK2606414 5 μM, 48 h
# Method: FIG. 5: PERK dampens ABT-263 killing activity. (A) Q-PCR analysis of PERK level in Mel270 uveal melanoma cells treated with control (siCtl) or PERK (siPERK) siRNA for 48 hr. (B) Mel270 cells were treated with control (siCtl) or PERK (siPERK) siRNA for 48 hrs before being exposed to ABT-263 3 μM for 48 hr. FACS analyses of Annexin V/DAPI double staining in […] indicate alive (white) or dead (early, late apoptosis and necrosis in light grey) cells. (C) Mel270 cells were treated with ABT-263 5 μM or GSK2606414 5 μM alone or in combination for 48 h.
# as §3
# [3] = system: panel of human uveal melanoma cell lines; assay: Cell death by Annexin V/DAPI staining with qVD; format: cell-based; conditions: all cell lines
# Method: as §3
# [4] = system: Mel270 uveal melanoma cells; assay: Mitochondrial membrane potential by TMRE staining; format: cell-based, human; conditions: Mel270 cells
# Method: (§4) FIG. 1. ABT-263 induces apoptosis of uveal melanoma cells. Detection of the mitochondrial membrane potential using TMRE staining in Mel270 and OMM1 uveal melanoma cells exposed to ABT-263 3 μM or 5 μM for 48 h in the absence or presence of QVD-OPh 20 μM.
# [5] = system: OMM1 uveal melanoma cells; assay: Mitochondrial membrane potential by TMRE staining; format: cell-based, human; conditions: OMM1 cells
# Method: as §4
# [6] = system: PARP, caspase 9 and caspase 3 in primary and metastatic uveal melanoma cells; assay: Western blot of PARP and caspases; format: cell-based, human; conditions: pretreatment with pan caspase inhibitor
# [7] = system: ER stress molecules in metastatic human uveal melanoma cells; assay: Western blot of ER stress molecules; format: cell-based; conditions: OMM1
# Method: as §2, with “(Amersham). The western blots shown are representative of at least 3 independent experiments.” for “(Amersham).”
compound,measurement,setting,value
CC1(C)CCC(CN2CCN(c3ccc(C(=O)NS(=O)(=O)c4ccc(NCC5CCOCC5)c([N+](=O)[O-])c4)c(Oc4cnc5[nH]ccc5c4)c3)CC2)=C(c2ccc(Cl)cc2)C1 [ABT-199],proliferation inhibition,"OMM1 cells; OMM1 cells, data not shown",15%
CN(C)CC[C@H](CSc1ccccc1)Nc1ccc(S(=O)(=O)NC(=O)c2ccc(N3CCN(Cc4ccccc4-c4ccc(Cl)cc4)CC3)cc2)cc1[N+](=O)[O-] [ABT-737],proliferation,[1],strongly reduced proliferation
same,proliferation,OMM1 cells; OMM1 metastatic melanoma cells,strongly reduced proliferation
same,"proliferation, response of primary melanoma cells",primary melanoma cells,highly resistant
Cn1cc(-c2ccc3c(c2)CCN3C(=O)Cc2cccc(C(F)(F)F)c2)c2c(N)ncnc21 [GSK2606414],CHOP and ATF4 accumulation,"[2]; cell line not stated, data not shown",inhibited CHOP and ATF4 accumulation
same,sensitivity of 92.1 cells to ABT-263 with GSK2606414,92.1 cells,resensitized
same,"viable cells, alone",Mel270 cells,no effect
CC(C)[C@H](NC(=O)c1ccc2ccccc2n1)C(=O)N[C@@H](CC(=O)O)C(=O)COc1c(F)cccc1F [qVD],effect of qVD on ABT-263 mediated change in ER molecules,"[2]; Mel270, QVD-OPh 20 μM",did not impact
same,effect of qVD on ABT-263 cytotoxicity,[3],protective effect
same,effect of qVD on mitochondrial membrane depolarization after ABT-263,[4],did not prevent it
same,effect of qVD on mitochondrial membrane depolarization after ABT-263,[5],prevented mitochondrial membrane depolarization
same,PARP and caspase cleavage under ABT-263 after QVD pretreatment,[6],prevented PARP and caspase cleavage
tunicamycin,CHOP stimulation,[7],able to stimulate CHOP
